Read-outs that look alike come from different tables or passages of the source. Blank lines part the entries; values can stand above or below the compound they belong to.
System: NL43 HIV-1 laboratory strain
Test: NL43 HIV-1 laboratory strain replication assay with HelaCD4+β-Gal indicator cells (P4 cells), CPRG development, CalcuSyn analysis
Type: cell-based
Experimental: Synergistic interactions between quinoline compounds (BA011FZ041) and either RT (zidovudine and nevirapine) or other integrase inhibitors (L-731,988) were investigated using a NL43 HIV-1 laboratory strain replication assay. Virus infectivity in the presence of inhibitors was monitored with HelaCD4+β-Gal indicator cells (P4 cells). Inhibition by combination of BA011FZ041 and other inhibitors was evaluated at three fixed molar BA011FZ041/Inhibitor ratios: 1:1, 1:2, and 2:1. Three independent experiments with triplicate data points were performed for each ratio. Interactions were calculated by the multiple drug effect equation of Chou and Talalay (Chou and Talalay, 1983; and Chou and Talalay, 1984) based on the median effect principle, using CalcuSyn® software (Biosoft, UK).
On the day prior to the test, 5,000 HeLaP4 cells per well are seeded in 100 μl of 10% FBS DMEM supplemented with […] penicillin, 100 μg/ml streptomycin and 0.5 mg/ml geniticin (G418). Otherwise, in the morning of the test, 10,000 HeLaP4 cells are seeded per well in 100 μl of 10% FBS DMEM supplemented with […] penicillin, 100 μg/ml streptomycin and 0.5 mg/ml geniticin (G418).
One plate of cells is used for the 2 drugs alone+half a plate per ratio tested is used for development with CPRG and, as necessary, an equivalent number of plates for the MTT toxicity test.
Several drug-drug ratios are tested: 1:1, 1:2, 2:1, 1:4 and 4:1.
Ratios are expressed relative to IC50 values. For the 1:1 ratio, the IC50 concentration for (BA011FZ041+drug X) is the IC50 concentration for BA011FZ041+the IC50 concentration for drug X.
For the 1:2 ratio, the IC50 concentration for (BA011FZ041+drug X) is the IC50 concentration for BA011FZ041+twice the IC50 concentration for drug X.
The form of BA011FZ041 tested is the sodium carbonate salt.
Further dilutions are also performed using PBS and are then distributed at 5 μl per well. • For DMSO: the molecules are resuspended at a concentration 200-fold higher than that finally required in the well so that DMSO be non toxic for the HeLa P4 cells. The quantity of DMSO is constant for each drug concentration tested.
In practice, initial dilutions are performed using DMSO, with these solutions then being rediluted fivefold in PBS or culture medium so as to obtain concentrations 40-fold higher than those finally required in the well. The solutions are then distributed at 5 μl per well.
Prior to infection, the wells are filled up to a final volume of 200 μl with 40 or 45 μl of medium.
NL4.3 viral supernatant has been produced by CaCl2 transfection of 293T cells. The HeLa P4 cells are infected with NL 4.3 HIV virus, with about 1 to 2 ng of P24 per well.
Depending on the P24 content of the virus used, a virus solution+10% FBS DMEM supplemented with […] penicillin, 100 μg/ml streptomycin and 0.5 mg/ml geniticin (G418) is prepared and is then distributed at 50 μl per well.
The plates are incubated at 37° C., 5% CO2, for 60 hours.
The CPRG (chlorophenol red-β-D-galactopyranoside) test is a […] test enabling measurement of the quantity of β-galactosidase produced during viral infection (the β-gal gene is under the control of the TAR element which in turn is controlled by the viral. TAT).
The supernatant is removed from the plates of HelaP4 cells. 100 μl of CPRG lysis buffer is added per well (for 110 wells: Na2HPO4 (0.5M) 1687 μL, NaH2PO4 (1M) 440 μL, KCl (1M) 110 μL, MgSO4 (1M) 220 μL, EDTA (0.5M) 55 μL, β-mercaptoethanol 39 μL, NP40 14 μL, water 8617 μL).
The cells are incubated for 10 minutes at 37° C. in order to obtain full cell lysis. The lysed wells are homogenized and 50 μl of each lysate is transferred into the corresponding well of another plate containing 100 μl reaction buffer (for 110 wells: pH 7.4 phosphate buffer (1M) 880 μL, MgCl2 99 μL, β-mercaptoethanol 77 μL, water 8140 μL, CPRG (250 mg of CPRG dissolved in 9.1 ml of Millipore water+455 μl pH 7.4 sodium phosphate buffer) 1833 μL).

IC50 (Table 6, Ratio 1:1 series with Nev, drug alone, Mean, read-out: IC50 FZ41, drug alone): 1600 nM | IC50 (Table 6, Ratio 1:2 series with Nev, drug alone, Mean, read-out: IC50 FZ4, drug alone): 1500 nM | IC50 (Table 6, Ratio 2:1 series with Nev, drug alone, Mean, read-out: IC50 FZ41, drug alone): 1500 nM | IC50 (Table 8, Ratio 1:1 series with ZVD, drug alone, Mean, read-out: IC50 FZ41, drug alone): 1400 nM | IC50 (Table 8, Ratio 1:2 series with ZVD, drug alone, Mean, read-out: IC50 FZ41, drug alone): 1700 nM | IC50 (Table 8, Ratio 2:1 series with ZVD, drug alone, Mean, read-out: IC50 FZ41, drug alone): 1700 nM | IC50 (Table 10, Ratio 1:1 series with L-731,988, drug alone, Mean, read-out: IC50 FZ41, drug alone): 1300 nM | IC50 (Table 10, Ratio 1:2 series with L-731,988, drug alone, Mean, read-out: IC50 FZ41, drug alone): 1300 nM | IC50 (Table 10, Ratio 2:1 series with L-731,988, drug alone, Mean, read-out: IC50 FZ41, drug alone): 1300 nM | IC50 (in the mix with L-731,988, Ratio 1:1, Mean, read-out: IC50 FZ41, in the mix): 900 nM | IC50 (in the mix with L-731,988, Ratio 1:2, Mean, read-out: IC50 FZ41, in the mix): 800 nM | IC50 (in the mix with L-731,988, Ratio 2:1, Mean, read-out: IC50 FZ41, in the mix): 1100 nM | IC50 (in the mix with Nev, Ratio 1:1, Mean, read-out: IC50 FZ41, in the mix): 1100 nM | IC50 (in the mix with Nev, Ratio 1:2, Mean, read-out: IC50 FZ4, in the mix): 900 nM | IC50 (in the mix with Nev, Ratio 2:1, Mean, read-out: IC50 FZ41, in the mix): 1200 nM | IC50 (in the mix with ZVD, Ratio 1:1, Mean, read-out: IC50 FZ41, in the mix): 800 nM | IC50 (in the mix with ZVD, Ratio 1:2, Mean, read-out: IC50 FZ41, in the mix): 700 nM | IC50 (in the mix with ZVD, Ratio 2:1, Mean, read-out: IC50 FZ41, in the mix): 1100 nM
Compound: COc1cc(C=Cc2ccc3ccc(C(=O)O)c(O)c3n2)cc(O)c1O [BA011FZ041, 8-hydroxy-2-[2-[(3,4-dihydroxy-5-methoxy-phenyl)ethenyl]]7-quinoline carboxylic acid]

IC50 (Human immunodeficiency virus 1, NL43, Table 10, Ratio 1:1 series, drug alone, Mean, read-out: IC50 L-731,988, drug alone): 1500 nM | IC50 (Human immunodeficiency virus 1, NL43, Table 10, Ratio 1:2 series, drug alone, Mean, read-out: IC50 L-731,988, drug alone): 1500 nM | IC50 (Human immunodeficiency virus 1, NL43, Table 10, Ratio 2:1 series, drug alone, Mean, read-out: IC50 L-731,988, drug alone): 1500 nM | IC50 (Human immunodeficiency virus 1, NL43, in the mix with FZ41, Ratio 1:1, Mean, read-out: IC50 L-731,988, in the mix): 300 nM | IC50 (Human immunodeficiency virus 1, NL43, in the mix with FZ41, Ratio 1:2, Mean, read-out: IC50 L-731,988, in the mix): 500 nM | IC50 (Human immunodeficiency virus 1, NL43, in the mix with FZ41, Ratio 2:1, Mean, read-out: IC50 L-731,988, in the mix): 200 nM
Compound: O=C(O)C(=O)CC(=O)c1cccn1Cc1ccc(F)cc1 [L-731,988, 4-[1-(4-fluorobenzyl)pyrrole-2-yl]-2,4-diketobutanoic acid]

IC50 (Human immunodeficiency virus 1, NL43, Table 6, Ratio 1:1 series, drug alone, Mean, read-out: IC50 Nev, drug alone): 39 nM | IC50 (Human immunodeficiency virus 1, NL43, Table 6, Ratio 1:2 series, drug alone, Mean, read-out: IC50 Nev, drug alone): 41 nM | IC50 (Human immunodeficiency virus 1, NL43, Table 6, Ratio 2:1 series, drug alone, Mean, read-out: IC50 Nev, drug alone): 39 nM | IC50 (Human immunodeficiency virus 1, NL43, in the mix with FZ41, Ratio 1:1, Mean, read-out: IC50 Nev, in the mix): 11 nM | IC50 (Human immunodeficiency virus 1, NL43, in the mix with FZ41, Ratio 1:2, Mean, read-out: IC50 Nev, in the mix): 18 nM | IC50 (Human immunodeficiency virus 1, NL43, in the mix with FZ41, Ratio 2:1, Mean, read-out: IC50 Nev, in the mix): 6.3 nM
Compound: Cc1ccnc2c1NC(=O)c1cccnc1N2C1CC1 [Nev]

IC50 (Human immunodeficiency virus 1, NL43, Table 8, Ratio 1:1 series, drug alone, Mean, read-out: IC50 ZVD, drug alone): 29 nM | IC50 (Human immunodeficiency virus 1, NL43, Table 8, Ratio 1:2 series, drug alone, Mean, read-out: IC50 ZVD, drug alone): 46 nM | IC50 (Human immunodeficiency virus 1, NL43, Table 8, Ratio 2:1 series, drug alone, Mean, read-out: IC50 ZVD, drug alone): 44 nM | IC50 (Human immunodeficiency virus 1, NL43, in the mix with FZ41, Ratio 1:1, Mean, read-out: IC50 ZVD, in the mix): 16 nM | IC50 (Human immunodeficiency virus 1, NL43, in the mix with FZ41, Ratio 1:2, Mean, read-out: IC50 ZVD, in the mix): 28 nM | IC50 (Human immunodeficiency virus 1, NL43, in the mix with FZ41, Ratio 2:1, Mean, read-out: IC50 ZVD, in the mix): 11 nM
Compound: Cc1cn([C@H]2C[C@H](N=[N+]=[N-])[C@@H](CO)O2)c(=O)[nH]c1=O [ZVD, 3′-azido-3′-deoxythymidine]

— patent US20080280849A1, “Synergic Combinations Comprising a Quinoline Compound and Other Hiv Infection Therapeutic Agents” (priority 2005, published 2008)
